Measurements: US20140271649A1, “METHODS AND COMPOSITIONS FOR INHIBITING STAPHYLOCOCCUS AGGLUTINATION IN BLOOD” (The University of Chicago, priority 2011, published 2014)

Tests used:
[1] = in vivo, sc; cited from earlier work
S. aureus N315 [2] = assay: Mouse sepsis survival, MRSA N315 challenge; assay type: in vivo, BALB/c mice; details: lethal challenge S. aureus N315; Dbg 10 mg/kg, antibodies 5 mg/kg
S. aureus MW2 [3] = assay: Mouse sepsis survival, MRSA MW2 challenge; assay type: in vivo, BALB/c mice; details: lethal challenge S. aureus MW2; Dbg 10 mg/kg, antibodies 5 mg/kg
Coa-prothrombin [4] = details: literature (Hijikata-Okunomiya and Kataoka, 2003; Vanassche et al., 2010); cited from earlier work
[5] = Serum IgG after active immunization (ELISA); assay type: in vivo, BALB/c mice; details: 50 μg protein in CFA, boost in IFA
S. aureus Newman [6] = assay: Heart tissue histopathology 12 hours after S. aureus Newman infection; assay type: in vivo, BALB/c mice
S. aureus USA300 LAC = assay: Mouse sepsis survival, S. aureus USA300 LAC challenge; assay type: in vivo, BALB/c mice; details: 10 mg/kg i.p. every 12 h; lethal dose S. aureus USA300 LAC; vs mock
Procedure: (§1) Sepsis. Overnight cultures of staphylococcal strains were diluted 1:100 into fresh TSB and grown until they reached an OD600 of 0.4. Bacteria were centrifuged at 7,000×g, washed, and suspended in the one-tenth volume of PBS. Six week-old female BALB/c mice (n=15) (Charles River) were injected retro-orbitally with 1×10^8 CFU (S. aureus Newman, MW2, and N315) or 5×10^7 CFU (S. aureus USA300) suspensions in 100 μl of PBS. Mice were monitored for survival over 10 days. To enumerate staphylococcal load in heart tissue twelve hours post-infection, mice were euthanized by CO2 asphyxyation and hearts were removed during necropsy. Heart tissue was homogenized in PBS, 0.1% Triton X-100. Serial dilutions of homogenate were spread on TSA and incubated for colony formation. The bacterial load in organ tissue was analyzed in pairwise comparisons between wild-type and mutant strains with the unpaired two-tailed Student's t-test. For histopathology, mice infected with S. aureus were euthanized 12 hours after infection. Hearts were removed during necropsy and fixed in 10% formalin for 24 hours at room temperature. […] Data were analyzed in pairwise comparisons between wild-type and mutant strains with the unpaired two-tailed Student's t-test. […]
(§2) Dabigatran etexilate treatment. […] Thrombin time was measured on a STA-R analyzer (Diagnostica Stago).

clfA mutant S. aureus = assay: Mouse sepsis survival, clfA mutant challenge; assay type: in vivo, BALB/c mice
Procedure: as §1, §2

S. aureus coa/vwb mutant = assay: Mouse sepsis survival, S. aureus coa/vwb mutant challenge; assay type: in vivo, BALB/c mice; details: 10 mg/kg i.p. every 12 h, vs mock
Procedure: as §1, §2

clfA (pclfA) variant = assay: Mouse sepsis survival, clfA (pclfA) variant challenge; assay type: in vivo, BALB/c mice
Procedure: as §1, §2

S. aureus Newman [7] = assay: Mouse sepsis survival, S. aureus Newman challenge; assay type: in vivo, BALB/c mice; details: 10 mg/kg i.p. in 12 hour intervals, mock treated died within 60 hours
S. aureus Newman [8] = assay: Agglutination assay in plasma, S. aureus Newman; assay type: cell-based, Staphylococcus aureus; details: argatroban treatment, increasing concentrations
Procedure: Agglutination assay. Overnight cultures of staphylococcal strains were washed in 1 mL 0.85% NaCl and suspended to a final concentration of OD600 4.0 in 1 mL. Bacteria were incubated with 1:500 Syto9 (Invitrogen) for 15 minutes, washed with 1 mL 0.85% NaCl, and suspended in 1 mL saline. Bacteria were mixed 1:1 with EDTA-chelated rabbit plasma (Becton, Dickinson) on a glass microscope slide and incubated for 15 minutes. Samples were viewed and images captured on an Olympus Provis microscope using a 40× objective. For quantification of agglutination, plasma and bacteria were inoculated onto polystyrene C-Chip disposable hemocytometer slides (IN-CYTO). […] For analysis, the largest aggregate in each field of view was outlined in ImageJ and the area of that aggregate measured. Mean area of S. aureus aggregates were determined and normalized by subtracting Newman in saline without plasma from all values. Percent agglutination was calculated by normalizing all mean intensity values to S. aureus Newman in plasma. […] Fold change in agglutination was calculated as the ratio of mean bacterial aggregation area in the presence of antibody compared to control. Statistical significance, P<0.05, was determined by one way analysis of variance (ANOVA), with Dunnett's multiple comparison analysis for post-hoc testing using GraphPad Prism software. […]

Coa-prothrombin [9] = assay: Coagulase activity: fibrinogen to fibrin conversion by Coa-prothrombin; assay type: biochemical, S. aureus / human; details: 200 ng argatroban, absorbance at 450 nm
Procedure: (§3) Coagulase activity. Purified recombinant Coa or vWbp (100 nM) were mixed with human prothrombin (Innovative Research) in 1% sodium-citrate/PBS. After an initial reading, fibrinogen (3 μM) (Sigma) was added and conversion of fibrinogen to fibrin was measured as an increase in turbidity at 450 nm in a plate reader (BioTek) at 2.5 min intervals. As controls, the enzymatic activity of human alpha-thrombin (Innovative Research) or prothombin alone were measured. Argatroban (200 ng, Novaplus) was added to reactions prior to the addition of fibrinogen.

S. aureus N315 [10] = assay: Agglutination assay in plasma, MRSA N315; assay type: cell-based, Staphylococcus aureus; details: argatroban (1 mg/mL), OD550 after two hours
S. aureus MW2 [11] = assay: Agglutination assay in plasma, MRSA MW2; assay type: cell-based, Staphylococcus aureus; details: argatroban (1 mg/mL), OD550 after two hours
human alpha-thrombin = human alpha-thrombin (Homo sapiens, UniProt P00734); assay: Coagulase activity control: fibrinogen to fibrin conversion by thrombin; assay type: biochemical; details: 200 ng argatroban, absorbance at 450 nm, compared to mock control
Procedure: as §3

vWbp-prothrombin = target: T1, vWbp-prothrombin (Homo sapiens, UniProt P00734); assay: Coagulase activity: fibrinogen to fibrin conversion by vWbp-prothrombin; assay type: biochemical, S. aureus / human; details: 200 ng argatroban, absorbance at 450 nm
T1 construct: purchased Innovative Research (prothrombin); host or cells: vWbp made in house in E. coli BL21(DE3), Ni-NTA purified
Procedure: as §3

N=C(N)c1ccc(CNC(=O)[C@@H]2CCN2C(=O)[C@H](NCC(=O)O)C2CCCCC2)cc1 [melagatran]
dose at which toxicity began [1]: over 5 mg

[H]/N=C(/N)c1ccc(NCc2nc3cc(C(=O)N(CCC(=O)O)c4ccccn4)ccc3n2C)cc1 [dabigatran]
time-to-death / survival during sepsis (S. aureus N315 [2]): did not prolong the survival | time-to-death / survival during sepsis (S. aureus MW2 [3]): did not prolong the survival | inhibition of the proteolytically active Coa-prothrombin complex (Coa-prothrombin [4]): inhibit

ClfA: purified recombinant S. aureus clumping factor A; used in binding assay and as antigen for active immunization
specific IgG antibodies after active immunization [5]: raised specific IgG antibodies | frequency of heart lesions (S. aureus Newman [6]; active immunization, challenged twelve hours with wild-type S. aureus Newman): reduced the frequency of heart lesions

CCCCCCOC(=O)N=C(N)c1ccc(NCc2nc3cc(C(=O)N(CCC(=O)OCC)c4ccccn4)ccc3n2C)cc1 [dabigatran-etexilate]
survival of septic mice (S. aureus USA300 LAC): prolonged the survival | survival and time-to-death (clfA mutant S. aureus; clfA mutant challenge compared to control strain harboring pclfA): increased the survival and time-to-death | disease outcome (clfA mutant S. aureus; clfA mutant challenge compared to mock treated mice): further improved the disease outcome | survival or time-to-death (S. aureus coa/vwb mutant): no effect | benefit from treatment (time-to-death) (clfA (pclfA) variant): benefited | agglutination of staphylococcus in heart tissue (S. aureus Newman [6]; dabigatran-etexilate treatment, S. aureus Newman, 12 hours, histopathology): reduced agglutination | survival after challenge (S. aureus Newman [7]): up to 132 hours

CC1CNc2c(cccc2S(=O)(=O)N[C@@H](CCCNC(=N)N)C(=O)N2CC[C@@H](C)C[C@@H]2C(=O)O)C1 (some centres unmarked) [argatroban]
agglutination of S. aureus Newman in plasma (S. aureus Newman [8]): interfered with the agglutination | conversion of fibrinogen to fibrin by Coa-prothrombin (Coa-prothrombin [9]): blocked | agglutination of S. aureus N315 in EDTA-plasma (S. aureus N315 [10]): inhibited | agglutination of S. aureus MW2 in EDTA-plasma (S. aureus MW2 [11]): inhibited | conversion of fibrinogen to fibrin by thrombin (human alpha-thrombin): blocked | inhibition of the proteolytically active Coa-prothrombin complex (Coa-prothrombin [4]): inhibit | conversion of fibrinogen to fibrin by vWb-prothrombin (vWbp-prothrombin): blocked
